Our source for the TGI and GI50 values is PubChem BioAssay (NCI).

Test systems include 786-0 renal; HL-60(TB) leukemia; HT29 colon; MOLT-4 leukemia; NCI-H226 lung; OVCAR-4 ovarian; OVCAR-5 ovarian; OVCAR-8 ovarian; SNB-75 CNS; TK-10 renal.
Common to all, as to assay: NCI tumour cell line growth inhibition, 48 h

Each structure is given as a SMILES string.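 Compound exposure: 48 hours, 5 concentrations, 96-well plates. Abbreviation: GI50, concentration required for 50% inhibition of growth. TGI is the concentration that stops growth completely.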 Bounds are passed on as bounds.

Turning to `COc1ccc(C(=O)C(C(=O)CCC(=O)Nc2cccc(C(F)(F)F)c2)c2ccccc2)cc1` (stereo not given), the TGI in the experiment on 786-0 renal, with HL-60(TB) leukemia, with HT29 colon, in the experiment on MOLT-4 leukemia, in the experiment on NCI-H226 lung and in the experiment on OVCAR-4 ovarian was > 100 µM throughout. For the same molecule, the TGI with OVCAR-5 ovarian, in the experiment on OVCAR-8 ovarian, with SNB-75 CNS and in the experiment on TK-10 renal was > 100 µM each time.

Regarding `CC(C)(C)c1nc2c(o1)C(=Nc1ccc(F)cc1)c1ccccc1C2=O`, the TGI was 52.5 µM in the experiment on 786-0 renal; > 44.9 µM with HL-60(TB) leukemia; 41.6 µM in the experiment with HT29 colon; > 100 µM in the experiment on MOLT-4 leukemia; 34.3 µM in the experiment on NCI-H226 lung; > 100 µM in the experiment with OVCAR-4 ovarian. The TGI was 34.3 µM in the experiment with OVCAR-5 ovarian, > 61.2 µM in the experiment on OVCAR-8 ovarian, 20 µM in the experiment with SNB-75 CNS and 68.3 µM in the experiment on TK-10 renal.

For the molecule `Cn1c(N)nc2c(nc(OCc3ccccc3)n2C2OC(CO)C(O)C2O)c1=O` (stereo not given), the TGI in the experiment on 786-0 renal, with HL-60(TB) leukemia, with HT29 colon, in the experiment on MOLT-4 leukemia, in the experiment on NCI-H226 lung and in the experiment with OVCAR-4 ovarian was > 100 µM in each case. In addition, the TGI in the experiment on OVCAR-5 ovarian, with OVCAR-8 ovarian, in the experiment with SNB-75 CNS and in the experiment on TK-10 renal was > 100 µM each time.

Consider `FC(F)(F)c1ccc2c(Nc3cccc(C4CC(c5ccccc5)=NN4c4ccc(Cl)cc4)c3)ccnc2c1` (stereo not given), for which the GI50 with 786-0 renal is 2.73 µM; in the experiment on HL-60(TB) leukemia, 4.04 µM; with HT29 colon it was 3.3 µM; in the experiment with MOLT-4 leukemia it was 3.6 µM; with NCI-H226 lung, 15 µM; in the experiment with OVCAR-4 ovarian, 4.99 µM. Further, the GI50 is 4.13 µM in the experiment with OVCAR-5 ovarian, 3.57 µM in the experiment on OVCAR-8 ovarian, 2.67 µM in the experiment on SNB-75 CNS and 4.76 µM with TK-10 renal. Also, the TGI is 10.7 µM in the experiment on 786-0 renal; 18.8 µM in the experiment with HL-60(TB) leukemia; 12.5 µM with HT29 colon; 19.5 µM with MOLT-4 leukemia; 36.2 µM in the experiment on NCI-H226 lung; 28.9 µM with OVCAR-4 ovarian. Also, the TGI amounted to 20.5 µM in the experiment on OVCAR-5 ovarian, 19.7 µM in the experiment on OVCAR-8 ovarian, 20.8 µM with SNB-75 CNS and 21.4 µM in the experiment on TK-10 renal.

As for `CCCSc1cc(Cl)nc(N)n1`, the GI50 was > 100 µM in the experiment on 786-0 renal; 6.48 µM with HL-60(TB) leukemia; > 100 µM in the experiment with HT29 colon; 94.8 µM in the experiment with MOLT-4 leukemia; > 100 µM with NCI-H226 lung; > 100 µM with OVCAR-4 ovarian. The GI50 in the experiment on OVCAR-5 ovarian was > 100 µM; in the experiment on OVCAR-8 ovarian it was > 100 µM; in the experiment on SNB-75 CNS it was 90.1 µM; in the experiment on TK-10 renal it was > 100 µM. The TGI in the experiment with 786-0 renal was > 100 µM; in the experiment on HL-60(TB) leukemia it was 50.5 µM; in the experiment on HT29 colon it was > 100 µM; in the experiment on MOLT-4 leukemia it was > 100 µM; with NCI-H226 lung, > 100 µM; in the experiment with OVCAR-4 ovarian, > 100 µM. Further, the TGI in the experiment with OVCAR-5 ovarian, with OVCAR-8 ovarian, in the experiment on SNB-75 CNS and in the experiment on TK-10 renal was > 100 µM throughout.

With `O=P(O)(O)C(O)(Cn1ccnc1)P(=O)(O)O`, the GI50 was 19 µM in the experiment with 786-0 renal; > 71.2 µM in the experiment with HL-60(TB) leukemia; > 90.6 µM in the experiment with HT29 colon; > 100 µM in the experiment with MOLT-4 leukemia; > 75 µM in the experiment with NCI-H226 lung; > 100 µM with OVCAR-4 ovarian. Besides, the GI50 with OVCAR-5 ovarian was > 89.2 µM; in the experiment with OVCAR-8 ovarian it was > 92.3 µM; in the experiment with SNB-75 CNS, > 37.4 µM; with TK-10 renal it was > 36.2 µM. Further, the TGI with 786-0 renal is > 70 µM; in the experiment with HL-60(TB) leukemia it was > 100 µM; in the experiment with HT29 colon, > 100 µM; in the experiment on MOLT-4 leukemia, > 100 µM; in the experiment on NCI-H226 lung it was > 100 µM; with OVCAR-4 ovarian, > 100 µM. Also, the TGI in the experiment on OVCAR-5 ovarian, with OVCAR-8 ovarian, in the experiment with SNB-75 CNS and in the experiment on TK-10 renal was > 100 µM each time.

Take `CS(=O)(=O)Nc1ccc(-c2ccc3c(NC(=O)C4CC4)n[nH]c3c2)cc1`: the GI50 in the experiment with 786-0 renal is > 25 µM; in the experiment on HL-60(TB) leukemia, > 16.7 µM; in the experiment with HT29 colon it was > 23.6 µM; with MOLT-4 leukemia it was > 15.7 µM; in the experiment with NCI-H226 lung, > 14.9 µM; with OVCAR-4 ovarian, 7.2 µM. The GI50 in the experiment on OVCAR-5 ovarian, in the experiment with OVCAR-8 ovarian, in the experiment with SNB-75 CNS and in the experiment with TK-10 renal was > 25 µM in each case. Moreover, the TGI in the experiment on 786-0 renal, in the experiment with HL-60(TB) leukemia, with HT29 colon, in the experiment on MOLT-4 leukemia, with NCI-H226 lung and with OVCAR-4 ovarian was > 25 µM in each case. Also, the TGI in the experiment on OVCAR-5 ovarian, in the experiment with OVCAR-8 ovarian, with SNB-75 CNS and with TK-10 renal was > 25 µM each time.
